Experimental data reported in the supplement of paper PMC11451515.

Tested on: P12-Ichikawa
Assay: cell viability relative to DMSO control; higher = less cytotoxic
Settings: 48 h
In short: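 Three leukemia lines were tested: NOMO1 and SEM at 500 cells/well and P12-Ichikawa at 1000 cells/well. Each was adapted for at least four passages in each medium and seeded in 5 μl in 1536-well plates, and library compounds in DMSO were pin-dosed from 47 μM to 0.79 nM in 11 threefold steps. After 48 h at 37°C, CellTiter-Glo One luminescence was read. Viability is a percentage relative to DMSO wells on each plate, with cell-free wells as background.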

[1] = HPLM + 10% dialyzed FBS, 0.000781 µM
[2] = HPLM + 10% dialyzed FBS, 0.00234 µM
[3] = HPLM + 10% dialyzed FBS, 0.00702 µM
[4] = HPLM + 10% dialyzed FBS, 0.0211 µM
[5] = HPLM + 10% dialyzed FBS, 0.0632 µM
[6] = HPLM + 10% dialyzed FBS, 0.19 µM
[7] = HPLM + 10% dialyzed FBS, 0.569 µM
[8] = HPLM + 10% dialyzed FBS, 1.71 µM
[9] = HPLM + 10% dialyzed FBS, 5.12 µM
[10] = HPLM + 10% dialyzed FBS, 15.4 µM
[11] = HPLM + 10% dialyzed FBS, 46.1 µM
[12] = RPMI 5 mM glucose + 10% FBS, 0.000781 µM
[13] = RPMI 5 mM glucose + 10% FBS, 0.00234 µM
[14] = RPMI 5 mM glucose + 10% FBS, 0.00702 µM
[15] = RPMI 5 mM glucose + 10% FBS, 0.0211 µM
[16] = RPMI 5 mM glucose + 10% FBS, 0.0632 µM
[17] = RPMI 5 mM glucose + 10% FBS, 0.19 µM
[18] = RPMI 5 mM glucose + 10% FBS, 0.569 µM
[19] = RPMI 5 mM glucose + 10% FBS, 1.71 µM
[20] = RPMI 5 mM glucose + 10% FBS, 5.12 µM
[21] = RPMI 5 mM glucose + 10% FBS, 15.4 µM
[22] = RPMI 5 mM glucose + 10% FBS, 46.1 µM
[23] = RPMI 5 mM glucose + 10% dialyzed FBS, 0.000781 µM
[24] = RPMI 5 mM glucose + 10% dialyzed FBS, 0.00234 µM
[25] = RPMI 5 mM glucose + 10% dialyzed FBS, 0.00702 µM
[26] = RPMI 5 mM glucose + 10% dialyzed FBS, 0.0211 µM
[27] = RPMI 5 mM glucose + 10% dialyzed FBS, 0.0632 µM
[28] = RPMI 5 mM glucose + 10% dialyzed FBS, 0.19 µM
[29] = RPMI 5 mM glucose + 10% dialyzed FBS, 0.569 µM
[30] = RPMI 5 mM glucose + 10% dialyzed FBS, 1.71 µM
[31] = RPMI 5 mM glucose + 10% dialyzed FBS, 5.12 µM
[32] = RPMI 5 mM glucose + 10% dialyzed FBS, 15.4 µM
[33] = RPMI 5 mM glucose + 10% dialyzed FBS, 46.1 µM

| Compound | cell viability [1] | cell viability [2] | cell viability [3] | cell viability [4] | cell viability [5] | cell viability [6] | cell viability [7] | cell viability [8] | cell viability [9] | cell viability [10] | cell viability [11] | cell viability [12] | cell viability [13] | cell viability [14] | cell viability [15] | cell viability [16] | cell viability [17] | cell viability [18] | cell viability [19] | cell viability [20] | cell viability [21] | cell viability [22] | cell viability [23] | cell viability [24] | cell viability [25] | cell viability [26] | cell viability [27] | cell viability [28] | cell viability [29] | cell viability [30] | cell viability [31] | cell viability [32] | cell viability [33] |
| --- | --- | --- | --- | --- | --- | --- | --- | --- | --- | --- | --- | --- | --- | --- | --- | --- | --- | --- | --- | --- | --- | --- | --- | --- | --- | --- | --- | --- | --- | --- | --- | --- | --- |
| Cc1cc(SCc2sc(-c3ccc(C(F)(F)F)cc3)nc2C)ccc1OCC(=O)O | 97.8% | 102% | 102% | 104% | 102% | 99.8% | 106% | 100% | 103% | 94.9% | 90.6% | 98.3% | 104% | 96.6% | 101% | 106% | 91.2% | 101% | 94.6% | 94.8% | 81.1% | 83.2% | 96.8% | 101% | 102% | 96.6% | 94.8% | 97% | 101% | 92.5% | 97.6% | 87.2% | 83.5% |
| C[C@@H](NCc1cc2ccccc2[nH]1)c1cccc2ccccc12 | 88.5% | 88.8% | 93.4% | 93% | 86.8% | 97% | 95.5% | 97.7% | 90% | 93.4% | 90.2% | 89.1% | 90.2% | 87.5% | 95.9% | 92.9% | 91.3% | 94.8% | 88% | 89.8% | 88.8% | 92.2% | 84.1% | 86.6% | 83.2% | 91.4% | 77.3% | 84.7% | 85.5% | 92.6% | 88.5% | 90.7% | 89.5% |
| O=[S+]([O-])(O)c1ccc2cc(/N=N/c3cc([S+](=O)([O-])O)c4cccnc4c3O)ccc2c1 | 123% | 123% | 125% | 110% | 126% | 120% | 124% | 111% | 108% | 113% | 58.8% | 131% | 124% | 121% | 109% | 126% | 112% | 115% | 111% | 113% | 113% | 59.2% | 135% | 125% | 114% | 110% | 114% | 122% | 117% | 114% | 113% | 101% | 56.4% |
| NC(=O)c1cnc(-c2ccc(C3(N)CCC3)cc2)c(-c2ccccc2)c1 | – | – | – | – | – | – | – | – | – | – | – | 118% | 126% | 115% | 111% | 115% | 134% | 121% | 116% | 111% | 80.4% | 67.9% | – | – | – | – | – | – | – | – | – | – | – |
| CC(=O)Oc1cc2c(s1)CCN(C(C(=O)C1CC1)c1ccccc1F)C2.Cl (centres undefined) | 95% | 102% | 100% | 107% | 107% | 103% | 107% | 112% | 101% | 106% | 65.1% | 100% | 106% | 101% | 111% | 115% | 124% | 116% | 133% | 101% | 94.8% | 53.5% | 95.9% | 105% | 102% | 104% | 103% | 112% | 104% | 101% | 99.7% | 80.3% | 50.3% |
| CC(C)C(=O)Nc1ncc(-c2cc(C(F)F)nn2-c2c(Cl)cccc2Cl)s1 | 122% | 122% | 117% | 120% | 126% | 136% | 129% | 131% | 134% | 132% | 63.5% | – | – | – | – | – | – | – | – | – | – | – | – | – | – | – | – | – | – | – | – | – | – |
| CC1=CC=C2\N=C/3N(CC[C@@]3(O)C(=O)C2=C1)C4=CC=CC=C4 | 97.2% | 98.3% | 94.9% | 94.6% | 99.3% | 88.8% | 92.1% | 95.3% | 82% | 86.6% | 89.5% | 84.8% | 82.3% | 92% | 90.2% | 92.4% | 89.2% | 89% | 90.2% | 83.8% | 86.7% | 86.9% | 95.4% | 86% | 84.1% | 83.1% | 84.5% | 81.1% | 90% | 82.1% | 81.9% | 76.4% | 78.7% |
| CN[C@H]1[C@H](O[C@@H]2[C@H](O[C@@H]3[C@@H](O)[C@@H](O)[C@@H](NC(=N)N)[C@@H](O)[C@H]3NC(=N)N)O[C@H](C)[C@@]2(O)C=O)O[C@@H](CO)[C@@H](O)[C@H]1O | 117% | 117% | 120% | 108% | 112% | 115% | 110% | 110% | 99.9% | 108% | 111% | 108% | 109% | 107% | 112% | 120% | 122% | 102% | 95.5% | 94.7% | 97.8% | 103% | 118% | 115% | 136% | 123% | 112% | 105% | 89.3% | 86% | 105% | 104% | 116% |
| O=[N+]([O-])c1ccc(Nc2ccccc2-c2ccccc2)c2nonc12 | 85.2% | 90.1% | 92.4% | 91.2% | 85.1% | 90.4% | 94.2% | 96.7% | 90.6% | 91% | 89.4% | 83.6% | 91.2% | 86.4% | 91.1% | 90.6% | 88% | 93.4% | 95.4% | 90.7% | 96.2% | 86.5% | 89.6% | 87.1% | 84.8% | 92.3% | 93.8% | 97.6% | 94.1% | 90.7% | 88.7% | 95.2% | 84.9% |
| CN1\N=N/C2=C(N=C[N]2C1=O)C(N)=O | 127% | 124% | 125% | 121% | 128% | 125% | 134% | 127% | 128% | 115% | 88.8% | – | – | – | – | – | – | – | – | – | – | – | – | – | – | – | – | – | – | – | – | – | – |
| O=[S+]([O-])(/N=C/c1c(O)ccc2ccccc12)c1cccs1 | 109% | 113% | 116% | 120% | 120% | 120% | 117% | 122% | 124% | 103% | 84.6% | 119% | 123% | 130% | 115% | 120% | 120% | 133% | 123% | 132% | 123% | 125% | 117% | 121% | 126% | 125% | 124% | 124% | 120% | 122% | 121% | 109% | 103% |
| CCC[C@@H](C=O)NC(=O)[C@H](CC(C)C)NC(=O)[C@H](CC(C)C)NC(=O)OCc1ccccc1 | 107% | 108% | 120% | 120% | 117% | 118% | 132% | 118% | 12.1% | 6.77% | 5.18% | 105% | 116% | 113% | 118% | 122% | 121% | 121% | 104% | 7.61% | 6.3% | 4.83% | 104% | 115% | 120% | 124% | 124% | 130% | 133% | 133% | 14.7% | 7.12% | 5.01% |
| COc1nccc(-c2c(-c3ccc(F)cc3)ncn2C2CCC(O)CC2)n1 (centres undefined) | 121% | 117% | 112% | 108% | 118% | 115% | 103% | 105% | 101% | 98.3% | 75.1% | 113% | 120% | 122% | 116% | 111% | 110% | 117% | 112% | 110% | 106% | 86.3% | 126% | 121% | 114% | 117% | 120% | 123% | 118% | 115% | 115% | 115% | 41.2% |
| COc1ccc(CC2c3cc(OC)c(OC)cc3CC[N+]2(C)CCC(=O)OCCCCCOC(=O)CC[N+]2(C)CCc3cc(OC)c(OC)cc3C2Cc2ccc(OC)c(OC)c2)cc1OC (centres undefined) | 86.1% | 86.6% | 86.3% | 97.2% | 90.5% | 96.3% | 92% | 96.6% | 97.8% | 95.1% | 86.7% | 82.7% | 86.4% | 91.6% | 92.1% | 92.4% | 95.6% | 99.3% | 99.2% | 85.3% | 96.3% | 83.7% | 80.3% | 83.5% | 87.3% | 91.4% | 93.1% | 96.6% | 93.2% | 83.1% | 86.2% | 95.1% | 90.7% |
| NCCCC(O)(P(=O)(O)O)P(=O)(O)O.O.O.O.[Na+] | 109% | 113% | 123% | 114% | 114% | 112% | 102% | 97.9% | 68.3% | 45.1% | 19.7% | 120% | 116% | 119% | 119% | 119% | 121% | 112% | 107% | 85.5% | 64.9% | 51.4% | 121% | 121% | 125% | 120% | 117% | 120% | 109% | 97.3% | 76.3% | 46.4% | 35.6% |
